Data on one compound can be found in ChEMBL document CHEMBL5729003, “Dihydropyrimidine compounds and uses thereof in medicine” (2022).

A word on the EC50: it is the concentration giving half of the maximal effect.

The nature of this experiment: Old liquid medium can be removed and replaced with new medium (200 μL) on day 0.Formulating the compound and treating the cells in the experiment of anti virus: the compound was dissolved in DMSO to a concentration of 30 mM, and then the compound solution was diluted with DMSO to a concentration of […], and then eight dilutions at 4 fold were performed, the highest concentration is 800 μM. The serial diluted compound was added to the above plate at 1 μL per well, the highest final concentration in the experiment is 4 μM (200 fold dilution). TDF (tenofovir dipiroxil fumarate, Selleck, Cat S1400) has a highest concentration of 4 μM as a positive control. […] at a final concentration of 0.5%, TDF was added in to the positive control well at a final concentration of 1 μM.Detection of Viral Genomic DNA by qPCRPrimer: HBV-For-202, […]; HBV-Rev-315, […]. Copies of virus can be calculated using a standard curve plotted by using plasmid containing HBV genome and using SYBR Premix Ex Taq II Takara DRR081S kit and 1 μL cell culture supernatant as a template. EC50 values of the compound on viral replication were calculated by a four parametric nonlinear regression model using Graphpad Prism 5 software to manage concentration—viral copy number. The following applies: HepG2.2.15.

In the case of `COC[C@@H]1[C@H]2CN(c3ccc(C(C)(C)OC=O)cc3)C(=O)N2CCN1CC1=C(C(=O)OC)[C@H](c2ccc(F)cc2Cl)N=C(c2nccs2)N1`, the half-maximal effective concentration (EC50) was 5 nM.
